Laboratory results: patent US10709132B2, “Microbicidal composition” (DDP SPECIALTY ELECTRONIC MATERIALAS US, INC., priority 2015, dated 2020)
Read-outs that look alike come from different tables or passages of the source.

Legend:
Type in all cases: cell-based
[1] = test system: Aspergillus brasiliensis ATCC #16404; experiment: Synergy test by MIC in 96 well microtiter plates, mold; settings: ATCC16404, 168 h, A. brasiliensis, contact time 7 days, 25° C., potato dextrose broth, read-out: MIC of compound acting alone (CA / CB)
Description: (§1) DMO with Pine oil was evaluated for synergy by determining the synergy index (S.I.) of the combination. Incubation temperature for bacteria was 30° C. and for fungi was 25° C. Synergy index was calculated based on minimum inhibitory concentrations (MIC) of two antimicrobial compounds (CA and CB) alone and in combinations (Ca and Cb). The test organisms were gram negative bacteria (Pseudomonas aeruginosa ATCC #15442), gram positive bacteria (Staphylococcus aureus ATCC #6538), and yeast (Candida albicans ATCC #10231) and mold (Aspergillus brasiliensis ATCC #16404). The test was carried out in 96 well microtiter plates. Contact time for the bacteria and yeast was 24 and 48 hours, and contact time for mold was 3 and 7 days. […] SI is calculated as follows: Ca/CA+Cb/CB=Synergy Index (“SI”) Wherein: • CA=concentration of compound A in ppm, acting alone, which produced an end point (MIC of Compound A). • Ca=concentration of compound A in ppm, in the mixture, which produced an end point. • CB=concentration of compound B in ppm, acting alone, which produced an end point (MIC of Compound B). • Cb=concentration of compound B in ppm, in the mixture, which produced an end point. When the sum of Ca/CA and Cb/CB is greater than one, antagonism is indicated. […] [table] [table] [table]

[2] = test system: Staphylococcus aureus ATCC #6538; experiment: Synergy test by MIC in 96 well microtiter plates, gram positive bacteria; settings: ATCC6538, S. aureus, 30° C., 10% tryptic soy broth, read-out: MIC of compound acting alone (CA / CB)
Description: as §1

[3] = test system: Candida albicans ATCC #10231; experiment: Synergy test by MIC in 96 well microtiter plates, yeast; settings: ATCC10231, C. albicans, 25° C., potato dextrose broth, read-out: MIC of compound acting alone (CA / CB)
Description: as §1

CC1(C)COCN1 [DMO, 4,4-dimethyloxazolidine] was tested, and the MIC [1] was 500 mg/L, the MIC ([2]; contact time 24 hrs) was 75 mg/L and the MIC ([2]; contact time 48 hrs) was 75 mg/L. For the same molecule, the MIC ([3]; contact time 24 hrs) was 1000 mg/L and the MIC ([3]; contact time 48 hrs) was 1000 mg/L.
